Data from publication PMC12264794, “Homoleptic complexes of titanium(IV) fused with O^N^O Schiff base derivatives: design, BSA–DNA interaction, molecular docking, DFT and cytotoxicity” (RSC Advances, 2025).

Tested on: CT-DNA
Assay: Competitive EtBr displacement fluorescence quenching on CT-DNA
Type: binding, calf
Conditions: not given
Experimental: Using fluorescence spectroscopy, the competitive binding relationship between metal complexes and CT-DNA bound to ethidium bromide was investigated. EtBr and CT-DNA solutions at a 5 mM concentration were made in PBS buffer (pH 7.4) for the fluorescence studies. After that, the reference solutions were allowed to settle at room temperature for an hour and the CT-DNA reference solution (200 μM) was coupled to ethidium bromide (50 μM) and allowed to rest for the specified period. The excitation and emission wavelengths were set at 460 nm and incremental addition of Ti(IV) complex concentrations ranging from 0 to 80 μM were used to titrate constant concentrations of EtBr-CT-DNA solution.[43,44]
A known volume of 200 μM CT-DNA (5 Mm) and 50 μM EB was mixed with an aqueous PBS buffer to make an EB-CT-DNA solution. The mixture was then kept at room temperature for 20 minutes before the complexes were titrated. Analysis of the competitive interaction mechanisms of the complexes towards CT-DNA involved the incremental addition of Ti(IV) complexes to the mixture of EB-CT-DNA. The modification in the emission spectral profile of EB-DNA indicated the impact of the addition of the complexes and there was a noticeable decrease in inflorescence intensity when the Ti(IV) complexes (0–100 μM) were added to the EB-CT-DNA system (Fig. 4(a), ESI Fig. S63 ^† and Table 2).
The linear plot of I0/I versus [complex] […] KSV is the Stern–Volmer quenching constant, and [Q] is the quencher concentration.6 Kapp × [Complex]50 = KEtBr × [EtBr]For the Ti(IV) complexes, Kapp (the apparent binding constant) was calculated using eqn (6), where KEtBr (1.0 × 10^7 M^−1) is the DNA binding constant of EB, [EtBr] is the concentration of EB = 10 μM and [Complex]50 denotes the complex concentration at which the fluorescence intensity of the DNA-EB adduct is reduced to 50%. […] Furthermore, the number of binding sites (n) and the equilibrium binding constant K were ascertained by using the Scatchard eqn (7):7 Log(I0 − I/I) = log K + n log[Q]where I0 is the fluorescence intensity of CT-DNA + EtBr in the absence of complex and I points to the fluorescence intensities of CT-DNA in the presence of a complex of concentration [Q]. The significant quenching in fluorescence intensity of all metal complexes (Table 2), the Stern–Volmer (ESI Fig. S64 ^†) and Scatchard plots (Fig. 4(c), ESI Fig. S65 ^† and Table 2), and other computations performed, supported the strong groove-binding interaction mode with CT-DNA.

Row | Compound | Kapp, apparent DNA binding constant
1 | Brc1ccc2c(c1)C=NN=C(c1ccncc1)[O][Ti]1([O]C(c3ccncc3)=NN=Cc3cc(Br)ccc3[O]1)[O]2 (centres unmarked) [Ti-6-IBr] | 4.24e+06 M⁻¹

Same assay, conditions: EB-CT-DNA adduct

Row | Compound | KSV, Stern–Volmer quenching constant
2 | [O-]C(=NN=Cc1cc(F)ccc1[O-])c1ccncc1.[O-]C(=NN=Cc1cc(F)ccc1[O-])c1ccncc1.[Ti+4] [Ti-4-IF] | 14000 M⁻¹
3 | [O-]C(=NN=Cc1c([O-])ccc2ccccc12)c1ccncc1.[O-]C(=NN=Cc1c([O-])ccc2ccccc12)c1ccncc1.[Ti+4] [Ti-2-IN] | 19000 M⁻¹
4 | Brc1ccc2c(c1)C=NN=C(c1ccncc1)[O][Ti]1([O]C(c3ccncc3)=NN=Cc3cc(Br)ccc3[O]1)[O]2 (centres unmarked) [Ti-6-IBr] | 16000 M⁻¹
5 | [O-]C(=NN=Cc1ccccc1[O-])c1ccncc1.[O-]C(=NN=Cc1ccccc1[O-])c1ccncc1.[Ti+4] [Ti-1-IS] | 6000 M⁻¹
6 | COc1cccc(C=NN=C([O-])c2ccncc2)c1[O-].COc1cccc(C=NN=C([O-])c2ccncc2)c1[O-].[Ti+4] [Ti-3-IO] | 16000 M⁻¹
7 | [O-]C(=NN=Cc1cc(Cl)ccc1[O-])c1ccncc1.[O-]C(=NN=Cc1cc(Cl)ccc1[O-])c1ccncc1.[Ti+4] [Ti-5-ICl] | 26000 M⁻¹

Same assay, conditions: EB-CT-DNA adduct, text value

Row | Compound | KSV, Stern–Volmer quenching constant
8 | [O-]C(=NN=Cc1cc(Cl)ccc1[O-])c1ccncc1.[O-]C(=NN=Cc1cc(Cl)ccc1[O-])c1ccncc1.[Ti+4] [Ti-5-ICl] | 26000 M⁻¹

Same assay, conditions: from eqn (6), complex concentration at 50% fluorescence

Row | Compound | Kapp, apparent DNA binding constant
9 | [O-]C(=NN=Cc1cc(F)ccc1[O-])c1ccncc1.[O-]C(=NN=Cc1cc(F)ccc1[O-])c1ccncc1.[Ti+4] [Ti-4-IF] | 3.41e+06 M⁻¹
10 | [O-]C(=NN=Cc1c([O-])ccc2ccccc12)c1ccncc1.[O-]C(=NN=Cc1c([O-])ccc2ccccc12)c1ccncc1.[Ti+4] [Ti-2-IN] | 3.56e+06 M⁻¹
11 | Brc1ccc2c(c1)C=NN=C(c1ccncc1)[O][Ti]1([O]C(c3ccncc3)=NN=Cc3cc(Br)ccc3[O]1)[O]2 (centres unmarked) [Ti-6-IBr] | 4.24e+06 M⁻¹
12 | [O-]C(=NN=Cc1ccccc1[O-])c1ccncc1.[O-]C(=NN=Cc1ccccc1[O-])c1ccncc1.[Ti+4] [Ti-1-IS] | 3.03e+06 M⁻¹
13 | COc1cccc(C=NN=C([O-])c2ccncc2)c1[O-].COc1cccc(C=NN=C([O-])c2ccncc2)c1[O-].[Ti+4] [Ti-3-IO] | 3.4e+06 M⁻¹
14 | [O-]C(=NN=Cc1cc(Cl)ccc1[O-])c1ccncc1.[O-]C(=NN=Cc1cc(Cl)ccc1[O-])c1ccncc1.[Ti+4] [Ti-5-ICl] | 3.43e+06 M⁻¹

Molecular target: T1, BSA (Bos taurus, UniProt P02769)
T1 construct: purchased Himedia Chemicals
Assay: BSA site marker (ibuprofen, warfarin) fluorescence quenching
Type: binding, bovine
Conditions: 298 K, site probe ibuprofen
Experimental: Fluorescence emission spectroscopy was used for site marker investigation, using an excitation wavelength of 280 nm. As they bind to the two most prevalent drug-binding sites, Sudlow sites I and II, two distinct site marker medications, warfarin (WAR) and ibuprofen (IBU), were utilized as particular site markers (probes) in this experiment. Separately, 10 mg of the site marker probes (WAR) and (IBU) were dissolved in PBS buffer. Subsequently, a known quantity of BSA was added to each probe stock solution to achieve a 5 mM concentration, and the mixture was maintained at 2 to 6 °C. The BSA + site marker binary solution was then titrated with different metal complex concentrations ranging from 0 to 80 μM, while maintaining constant binary solutions of BSA + IBU and BSA + WAR.[55,56]
In our experiment, fluorescence titration techniques were employed to determine the binding position of the BSA molecule. For the fluorescence titration, the excitation wavelength was […], and the emission was monitored between 300 and 500 nm where a fixed concentration of BSA (3 × 10^−6 M) and site markers (BSA + WAR) (BSA + IBU) were taken separately and titrated with the incremental addition of Ti-1-IS to Ti-6-IBr (0–100 μM). By comparing the Ksv values shown with and without site markers, the binding site of Ti(IV) complexes inside BSA was identified (ESI Table S3 ^†).
The Scatchard eqn (9) was used to examine the emission quenching data.

T1 sequence (P02769 25-607): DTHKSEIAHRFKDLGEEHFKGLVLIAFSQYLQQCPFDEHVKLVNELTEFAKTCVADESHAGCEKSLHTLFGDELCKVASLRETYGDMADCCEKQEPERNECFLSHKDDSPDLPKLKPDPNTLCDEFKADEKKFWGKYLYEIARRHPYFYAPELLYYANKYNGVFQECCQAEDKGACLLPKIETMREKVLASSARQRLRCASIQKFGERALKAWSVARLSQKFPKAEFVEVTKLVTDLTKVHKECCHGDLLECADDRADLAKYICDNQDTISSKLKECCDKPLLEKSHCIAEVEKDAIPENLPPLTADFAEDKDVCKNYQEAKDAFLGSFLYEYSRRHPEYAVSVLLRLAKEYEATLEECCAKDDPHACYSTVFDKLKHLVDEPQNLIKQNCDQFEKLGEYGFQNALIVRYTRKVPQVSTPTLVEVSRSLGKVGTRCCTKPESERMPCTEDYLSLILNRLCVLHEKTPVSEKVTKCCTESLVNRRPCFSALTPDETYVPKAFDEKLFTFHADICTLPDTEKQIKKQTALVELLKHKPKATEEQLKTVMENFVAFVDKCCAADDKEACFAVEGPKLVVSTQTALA

Row | Compound | Kb binding constant, BSA+Ibuprofen
15 | [O-]C(=NN=Cc1cc(F)ccc1[O-])c1ccncc1.[O-]C(=NN=Cc1cc(F)ccc1[O-])c1ccncc1.[Ti+4] [Ti-4-IF] | 370 M⁻¹
16 | [O-]C(=NN=Cc1c([O-])ccc2ccccc12)c1ccncc1.[O-]C(=NN=Cc1c([O-])ccc2ccccc12)c1ccncc1.[Ti+4] [Ti-2-IN] | 150 M⁻¹
17 | Brc1ccc2c(c1)C=NN=C(c1ccncc1)[O][Ti]1([O]C(c3ccncc3)=NN=Cc3cc(Br)ccc3[O]1)[O]2 (centres unmarked) [Ti-6-IBr] | 540 M⁻¹
18 | [O-]C(=NN=Cc1ccccc1[O-])c1ccncc1.[O-]C(=NN=Cc1ccccc1[O-])c1ccncc1.[Ti+4] [Ti-1-IS] | 340 M⁻¹
19 | COc1cccc(C=NN=C([O-])c2ccncc2)c1[O-].COc1cccc(C=NN=C([O-])c2ccncc2)c1[O-].[Ti+4] [Ti-3-IO] | 500 M⁻¹
20 | [O-]C(=NN=Cc1cc(Cl)ccc1[O-])c1ccncc1.[O-]C(=NN=Cc1cc(Cl)ccc1[O-])c1ccncc1.[Ti+4] [Ti-5-ICl] | 350 M⁻¹

Same assay, conditions: 298 K, site probe warfarin

Row | Compound | Kb binding constant, BSA + Warfarin
21 | [O-]C(=NN=Cc1cc(F)ccc1[O-])c1ccncc1.[O-]C(=NN=Cc1cc(F)ccc1[O-])c1ccncc1.[Ti+4] [Ti-4-IF] | 400 M⁻¹
22 | [O-]C(=NN=Cc1c([O-])ccc2ccccc12)c1ccncc1.[O-]C(=NN=Cc1c([O-])ccc2ccccc12)c1ccncc1.[Ti+4] [Ti-2-IN] | 690 M⁻¹
23 | Brc1ccc2c(c1)C=NN=C(c1ccncc1)[O][Ti]1([O]C(c3ccncc3)=NN=Cc3cc(Br)ccc3[O]1)[O]2 (centres unmarked) [Ti-6-IBr] | 390 M⁻¹
24 | [O-]C(=NN=Cc1ccccc1[O-])c1ccncc1.[O-]C(=NN=Cc1ccccc1[O-])c1ccncc1.[Ti+4] [Ti-1-IS] | 480 M⁻¹
25 | COc1cccc(C=NN=C([O-])c2ccncc2)c1[O-].COc1cccc(C=NN=C([O-])c2ccncc2)c1[O-].[Ti+4] [Ti-3-IO] | 580 M⁻¹
26 | [O-]C(=NN=Cc1cc(Cl)ccc1[O-])c1ccncc1.[O-]C(=NN=Cc1cc(Cl)ccc1[O-])c1ccncc1.[Ti+4] [Ti-5-ICl] | 160 M⁻¹

Tested on: not listed separately
Assay: DPPH radical scavenging assay
Type: biochemical
Conditions: 40 minutes, absorbance at 517 nm
Text: In the current study, 1,1-diphenyl 2-picrylhydrazyl (DPPH) radical scavenging screening determined the antioxidant properties of the synthesized Ti(IV) complexes. The spectrophotometric principle that led to the quenching of stable-colored radicals (DPPH) is the foundation of DPPH assays.[62] By detecting the drop in absorbance at 517 nm, which corresponds to the DPPH free radical, the scavenging activity of the produced complexes can be determined. The result of the reaction between the scavenger and colored free radical is 1,1-diphenyl-2-picrylhydrazine (DPPH-H), which lacks color. The newly synthesized Ti(IV) complexes were dissolved at a ratio of 1 mg mL^−1 in DMSO to create the stock solution. Similarly, methanol was used to prepare a stock solution of a 0.05 Mm DPPH solution. The Ti(IV) complexes were dissolved in DPPH stock solution to make (9.5 μM, 18.75 μM, 37.5 μM, 75 μM, 100 μM, and 300 μM) concentrations of the complexes and kept in a state of rest for 40 minutes under closed conditions. The absorbance of the Ti(IV) complexes was measured at 517 nm after 40 minutes for each solution loaded in 96-well plates using a Bio-Rad xMARK™ Microplate Spectrophotometer. For comparison, the absorbance of a control solution containing DPPH and methanol as blank, devoid of test samples, was also measured at the same level. Three sets of experiments were conducted for each concentration, using ascorbic acid as the standard reference. Using eqn (1), the proportion of DPPH free radical scavenging activity was calculated.[63]1 [drawing 1] where Ac and As are the absorbance of the control and the mixture. The necessary concentration of the Ti(IV) complexes to scavenge DPPH radicals was determined by employing linear regression to plot a curve between concentration and % inhibition.
In order to ascertain the antioxidant activity of the Ti(IV) complexes, a UV-vis spectrophotometric examination was performed using the 1,1-diphenyl-2-picrylhydrazyl (DPPH) method. Since DPPH is thought to be a dependable, stable, free radical, it reacts with methanol to form a […]. The ability of the complexes containing DPPH radicals to scavenge radicals was evaluated in the manner described. Several concentrations of the Ti(IV) complexes were investigated. Mixtures created by mixing DPPH with each component were subjected to spectrophotometric analysis at 517 nm to determine the absorbance. Antioxidant compounds usually transfer one electron to act as a reducing agent.

Row | Compound | IC50
27 | [O-]C(=NN=Cc1cc(F)ccc1[O-])c1ccncc1.[O-]C(=NN=Cc1cc(F)ccc1[O-])c1ccncc1.[Ti+4] [Ti-4-IF] | 82.61 ± 0.1 µM
28 | [O-]C(=NN=Cc1c([O-])ccc2ccccc12)c1ccncc1.[O-]C(=NN=Cc1c([O-])ccc2ccccc12)c1ccncc1.[Ti+4] [Ti-2-IN] | 128.1 ± 0.3 µM
29 | Brc1ccc2c(c1)C=NN=C(c1ccncc1)[O][Ti]1([O]C(c3ccncc3)=NN=Cc3cc(Br)ccc3[O]1)[O]2 (centres unmarked) [Ti-6-IBr] | 74.84 ± 0.2 µM
30 | [O-]C(=NN=Cc1ccccc1[O-])c1ccncc1.[O-]C(=NN=Cc1ccccc1[O-])c1ccncc1.[Ti+4] [Ti-1-IS] | 92.01 ± 0.1 µM
31 | COc1cccc(C=NN=C([O-])c2ccncc2)c1[O-].COc1cccc(C=NN=C([O-])c2ccncc2)c1[O-].[Ti+4] [Ti-3-IO] | 44.59 ± 0.4 µM
32 | [O-]C(=NN=Cc1cc(Cl)ccc1[O-])c1ccncc1.[O-]C(=NN=Cc1cc(Cl)ccc1[O-])c1ccncc1.[Ti+4] [Ti-5-ICl] | 72.26 ± 0.7 µM

Tested on: not listed separately
Assay: Stability studies by UV-vis in DMSO:H2O and aqueous GSH medium
Type: physicochemical
Conditions: DMSO : H2O (1 : 9, v/v) and aqueous GSH medium, over 72 hours
Experimental: Stability studies were carried out using DMSO : H2O medium (1 : 9, v/v) and aqueous GSH medium to perform stability tests on the freshly synthesized Ti(IV) complexes over 72 hours.

Row | Compound | Stability
33 | [O-]C(=NN=Cc1cc(F)ccc1[O-])c1ccncc1.[O-]C(=NN=Cc1cc(F)ccc1[O-])c1ccncc1.[Ti+4] [Ti-4-IF] | small degree of hyperchromism
34 | [O-]C(=NN=Cc1c([O-])ccc2ccccc12)c1ccncc1.[O-]C(=NN=Cc1c([O-])ccc2ccccc12)c1ccncc1.[Ti+4] [Ti-2-IN] | did not change much
35 | Brc1ccc2c(c1)C=NN=C(c1ccncc1)[O][Ti]1([O]C(c3ccncc3)=NN=Cc3cc(Br)ccc3[O]1)[O]2 (centres unmarked) [Ti-6-IBr] | small degree of hyperchromism
36 | [O-]C(=NN=Cc1ccccc1[O-])c1ccncc1.[O-]C(=NN=Cc1ccccc1[O-])c1ccncc1.[Ti+4] [Ti-1-IS] | did not change much
37 | COc1cccc(C=NN=C([O-])c2ccncc2)c1[O-].COc1cccc(C=NN=C([O-])c2ccncc2)c1[O-].[Ti+4] [Ti-3-IO] | small degree of hyperchromism
38 | [O-]C(=NN=Cc1cc(Cl)ccc1[O-])c1ccncc1.[O-]C(=NN=Cc1cc(Cl)ccc1[O-])c1ccncc1.[Ti+4] [Ti-5-ICl] | remained constant
